Test results taken from patent publication US10736968B2, “Cellular signalling inhibitors, their formulations and methods thereof” (INVICTUS ONCOLOGY PVT. LTD., priority 2016, dated 2020).

System: 4T1 breast cancer
Assay: 4T1 breast cancer model (tumor growth, lung metastatic nodules, survival)
Assay type: in vivo, Balb/c mice
Details: for number of metastatic nodules in lungs: lungs harvested on day 12
Text: FIG. 7. Effect of BLN101 on breast tumor growth inhibition. To validate the therapeutic efficacy of BLN101 (as AK750 formulation), we randomly sorted mice bearing 4T1 breast cancer into four groups and treated each group with one of the following: blank vehicle (control); AK750; an antiCSF1 antibody, and BLZ945. Treatment was strated when the tumors reached −75 mm^3 in volume. The day of first injection is considered Day 0). Vehicle-treated animals formed large tumors by Day 12, and consequently were killed. The animals in the other groups were also killed at the same time point to evaluate the effect of the treatments on tumor pathology. […] (b) Changes in body weight were within the acceptable limits.
Later, macrophages are isolated from the tumors and analyzed the cells for expression of markers CD11b+CD206+, CD11b+MHC-II+, CD11b+CD86+ and CD11b+CD80+ on the cells using flow cytometry. […] The tumor-bearing animals are injected with three doses of either Vehicle (for control group), 45 mg/kg of free BLZ-945, 45 mg/kg of BLN101 (in a AK750 formulation), or 25 mg/kg of CSF-1 neutralizing antibody, on day 0, day 4 and day 8. First day of treatment was considered as Day 0. […] Number of metastatic nodules present in the lungs is also quantified. Lungs were harvested from the mice on day 12 following the above treatment, washed with cold PBS followed by which the number of metastatic nodules were counted. […] Later, macrophages are isolated from the tumors and analyzed the cells for expression of markers CD11b+CD206+, CD11b+MHC-II+, CD11b+CD86+ on the cells using flow cytometry. […] SIRPα is a ‘eat-me-not’ signaling, which cancer cells engage with a CD47 ligand, and prevents phagocytosis of the cancer cells. The antibody that inhibits SIRPα was conjugated to the PEG chains on the surface of the AK750 supramolecular nanoparticles. A non-specific IgG was used as controls. […] Furthermore, melanoma-bearing mice is treated with a single dose of SIRPα antibody, AK750 or the SIRPα-AK750. […]

Row | Compound | number of metastatic nodules in lungs | tumor growth / progression (45 mg/kg on day 0, day 4 and day 8)
1 | CNC(=O)c1cc(Oc2ccc3nc(NC4CCCC[C@H]4OC(=O)CCC(=O)O[C@H]4CC[C@@]5(C)C(=CC[C@H]6[C@@H]7CC[C@H](C(C)CCCC(C)C)[C@@]7(C)CC[C@@H]65)C4)sc3c2)ccn1 (stereo in doubt) [BLN101] | complete inhibition of formation of metastatic nodules | 
2 | CNC(=O)c1cc(Oc2ccc3nc(N[C@@H]4CCCC[C@H]4O)sc3c2)ccn1 [BLZ-945] | reduction as compared to CSF-1 neutralizing antibody and the vehicle control | decreased tumor growth compared with vehicle-treated animals
